Source: patent publication EP4786487A1, “PEPTIDE” (Peptidream Inc, priority 2023, dated 2025)
Starred links: 1 amine or outer side, 2 acyl side, 3 side chain; linkers in the order of their positions; H or OH if unused. Positions of bridges follow the written chain, without caps; N, C: chain ends. Non-standard residues stand in square brackets, D forms with d. Residues, ends and D or L forms follow the SMILES beside them. Groups on a side chain read outwards from the residue. *: point of attachment. Phe(3-OCH2COOH) = N[C@@H](Cc1cccc(OCC(=O)O)c1)C(=O)O; Phe(3-Ph) = N[C@@H](Cc1cccc(-c2ccccc2)c1)C(=O)O; Phe(4-COOH) = N[C@@H](Cc1ccc(C(=O)O)cc1)C(=O)O; Piperazinyl(4-CH2COOH) = O=C(O)CN1CCN(*)CC1; 1Nal = N[C@@H](Cc1cccc2ccccc12)C(=O)O; Gly(decyl) = CCCCCCCCCC[C@H](N)C(=O)O; AEF = NCCOc1ccc(C[C@H](N)C(=O)O)cc1; X1 = CCCCCCC[C@H](N[*:1])C(=O)[*:2]; NMeF = CN[C@@H](Cc1ccccc1)C(=O)O; NMeE = CN[C@@H](CCC(=O)O)C(=O)O; Cha = N[C@@H](CC1CCCCC1)C(=O)O; NMeA = CN[C@@H](C)C(=O)O; CO = O=C([*:1])[*:2]; Sar = CNCC(=O)O

Experiments:
Myostatin = target: T1, Myostatin (Homo sapiens, UniProt O14793); test: HepG2 reporter gene assay, Evaluation Procedure (2): 2-concentrations assay, myostatin inhibition; assay type: cell-based; settings: Myostatin 10 ng/mL, HepG2; for inhibition at 0.03 µM: peptide 30nM, read-out: Myostatin Inhibition 30nM; for inhibition at 0.1 µM: peptide 100nM, read-out: Myostatin Inhibition 100nM
T1 construct: active myostatin (also called mature myostatin) is a homodimer consisting of two C-terminal growth factor domains; purchased R&D systems 788-G8/CF
T1 sequence (O14793 267-375): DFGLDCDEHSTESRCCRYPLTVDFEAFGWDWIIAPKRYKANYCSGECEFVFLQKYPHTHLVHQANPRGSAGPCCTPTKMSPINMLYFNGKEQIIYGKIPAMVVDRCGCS
Procedure, shortened: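 HepG2 cells (HB-8065, ATCC) carrying the transfected pGL3(CAGA)12-luc reporter plasmid were treated with myostatin (788-G8/CF, R&D systems) at a final concentration of 10 ng/mL plus peptide and incubated at 37°C, 5% CO2 for 20 to 24 hours. Luminescence was read after adding PBS mixed 1:1 with One-Glo substrate, and inhibition rate was calculated.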

GDF-11 = target: T2, GDF-11 (Homo sapiens, UniProt O95390); test: HepG2 reporter gene assay, Evaluation Procedure (2): 2-concentrations assay, GDF-11 inhibition; assay type: cell-based; settings: GDF-11 10 ng/mL; for inhibition at 0.03 µM: HepG2, peptide 30nM, read-out: GDF11 Inhibition 30nM; for inhibition at 0.1 µM: HepG2, peptide 100nM, read-out: GDF11 Inhibition 100nM
T2 construct: purchased R&D systems 1958-GD-G8/CF
T2 sequence (O95390 299-407): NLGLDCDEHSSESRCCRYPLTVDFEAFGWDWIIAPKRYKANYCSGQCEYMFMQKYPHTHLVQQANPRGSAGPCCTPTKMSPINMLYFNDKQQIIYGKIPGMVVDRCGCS
Procedure, shortened: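 HepG2 cells carrying the transfected pGL3(CAGA)12-luc reporter, a pGL3 vector with luciferase placed downstream of 12 CAGA repeats, were stimulated with GDF-11 at a final 10 ng/mL together with test peptide. Blank wells received no GDF-11 and no peptide. Plates were incubated 20 to 24 hours at 37°C with 5% CO2. Luminescence from One-Glo substrate was read to calculate percent inhibition.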

inhibition at 0.03 µM (Myostatin)	inhibition at 0.1 µM (Myostatin)	inhibition at 0.03 µM (GDF-11)	inhibition at 0.1 µM (GDF-11)	Compound
100%	100%	24%	72%	CCCCCCCCCC[C@@H]1NC(=O)[C@H](Cc2ccccc2)N(C)C(=O)[C@H](CCCNC(=N)N)NC(=O)[C@H](Cc2ccc(C(=O)O)cc2)NC(=O)[C@H](Cc2cccc(OCC(=O)O)c2)NC(=O)CN(C)C(=O)[C@H]([C@@H](C)CC)NC(=O)[C@H](Cc2ccccc2)N(C)C(=O)[C@H](Cc2ccc(O)cc2)NC(=O)[C@H](Cc2c[nH]c3ccccc23)NC(=O)[C@@H](CCCCNC(=O)N2CCN(CC(=O)O)CC2)NC(=O)[C@H](C)NC(=O)CSC[C@H](C(=O)N2CCN(CC(=O)O)CC2)NC(=O)[C@H](Cc2ccccc2)N(C)C(=O)[C@H](C)N(C)C1=O [Myostatin_99_v264] ({CH2CO}-A[dK]([CO-Piperazinyl(4-CH2COOH)])WY[NMeF]I[Sar][Phe(3-OCH2COOH)][Phe(4-COOH)]R[NMeF][Gly(decyl)][NMeA][NMeF][dC]-{Piperazinyl(4-CH2COOH)}; thioether N-15)
100%	100%	24%	64%	CCCCCCCCCC[C@@H]1NC(=O)[C@H](CC2CCCCC2)NC(=O)[C@H](CCCNC(=N)N)NC(=O)[C@H](Cc2ccc(C(=O)O)cc2)NC(=O)[C@H](CCCCNC(=O)N2CCN(CC(=O)O)CC2)NC(=O)CN(C)C(=O)[C@H]([C@@H](C)CC)NC(=O)[C@H](Cc2ccccc2)N(C)C(=O)[C@H](Cc2ccc(O)cc2)NC(=O)[C@H](Cc2c[nH]c3ccccc23)NC(=O)[C@H](C)NC(=O)[C@H](CCCCNC(=O)N2CCN(CC(=O)O)CC2)NC(=O)CSC[C@H](C(=O)N2CCN(CC(=O)O)CC2)NC(=O)[C@H](Cc2ccccc2)N(C)C(=O)[C@H](C)N(C)C1=O [Myostatin_99_v267] ({CH2CO}-K([CO-Piperazinyl(4-CH2COOH)])AWY[NMeF]I[Sar]K([CO-Piperazinyl(4-CH2COOH)])[Phe(4-COOH)]R[Cha][Gly(decyl)][NMeA][NMeF][dC]-{Piperazinyl(4-CH2COOH)}; thioether N-15)
100%	100%	65%	92%	CCCCCCCCCC[C@@H]1NC(=O)[C@H](CC2CCCCC2)NC(=O)[C@H](CCCNC(=N)N)NC(=O)[C@H](Cc2ccc(C(=O)O)cc2)NC(=O)[C@H](CCCCNC(=O)N2CCN(CC(=O)O)CC2)NC(=O)CN(C)C(=O)[C@H]([C@@H](C)CC)NC(=O)[C@H](Cc2ccccc2)N(C)C(=O)[C@H](Cc2ccc(O)cc2)NC(=O)[C@H](Cc2c[nH]c3ccccc23)NC(=O)[C@@H](CCCCNC(=O)N2CCN(CC(=O)O)CC2)NC(=O)[C@H](C)NC(=O)CSC[C@H](C(=O)N2CCN(CC(=O)O)CC2)NC(=O)[C@H](Cc2ccccc2)N(C)C(=O)[C@H](C)N(C)C1=O [Myostatin_99_v268] ({CH2CO}-A[dK]([CO-Piperazinyl(4-CH2COOH)])WY[NMeF]I[Sar]K([CO-Piperazinyl(4-CH2COOH)])[Phe(4-COOH)]R[Cha][Gly(decyl)][NMeA][NMeF][dC]-{Piperazinyl(4-CH2COOH)}; thioether N-15)
100%	100%	3%	59%	CCCCCCCCCC[C@@H]1NC(=O)[C@H](CC2CCCCC2)NC(=O)[C@H](CCCNC(=N)N)NC(=O)[C@H](Cc2ccc(C(=O)O)cc2)NC(=O)[C@H](CCCCNC(=O)N2CCN(CC(=O)O)CC2)NC(=O)CN(C)C(=O)[C@H]([C@@H](C)CC)NC(=O)[C@H](Cc2ccccc2)N(C)C(=O)[C@H](Cc2ccc(O)cc2)NC(=O)[C@H](Cc2c[nH]c3ccccc23)NC(=O)[C@H](C)NC(=O)[C@H](C)NC(=O)CSC[C@H](C(=O)N2CCN(CC(=O)O)CC2)NC(=O)[C@H](Cc2ccccc2)N(C)C(=O)[C@H](CCC(=O)O)N(C)C1=O [Myostatin_99_v269] ({CH2CO}-AAWY[NMeF]I[Sar]K([CO-Piperazinyl(4-CH2COOH)])[Phe(4-COOH)]R[Cha][Gly(decyl)][NMeE][NMeF][dC]-{Piperazinyl(4-CH2COOH)}; thioether N-15)
93%	99%	0%	0%	CCCCCCC[C@@H]1NC(=O)[C@H](Cc2ccccc2)N(C)C(=O)[C@H](CCCNC(=N)N)NC(=O)[C@H](Cc2ccc(C(=O)O)cc2)NC(=O)[C@H](Cc2cccc(OCC(=O)O)c2)NC(=O)CN(C)C(=O)[C@H]([C@@H](C)CC)NC(=O)[C@H](Cc2ccccc2)N(C)C(=O)[C@H](Cc2ccc(OCCN)cc2)NC(=O)[C@H](Cc2c[nH]c3ccccc23)NC(=O)[C@H](C)NC(=O)[C@H](C)NC(=O)CSC[C@H](C(=O)N2CCN(CC(=O)O)CC2)NC(=O)[C@H](Cc2ccccc2)N(C)C(=O)[C@H](C)N(C)C1=O [Myostatin_99_v299] ({CH2CO}-AAW[AEF][NMeF]I[Sar][Phe(3-OCH2COOH)][Phe(4-COOH)]R[NMeF][X1][NMeA][NMeF][dC]-{Piperazinyl(4-CH2COOH)}; thioether N-15)
81%	97%	0%	0%	CCCCCCC[C@@H]1NC(=O)[C@H](Cc2ccccc2)N(C)C(=O)[C@H](CCCNC(=N)N)NC(=O)[C@H](Cc2ccc(C(=O)O)cc2)NC(=O)[C@H](Cc2cccc(OCC(=O)O)c2)NC(=O)CN(C)C(=O)[C@H]([C@@H](C)CC)NC(=O)[C@H](Cc2ccccc2)N(C)C(=O)[C@H](Cc2cccc3ccccc23)NC(=O)[C@H](Cc2c[nH]c3ccccc23)NC(=O)[C@H](C)NC(=O)[C@H](C)NC(=O)CSC[C@H](C(=O)N2CCN(CC(=O)O)CC2)NC(=O)[C@H](Cc2ccccc2)N(C)C(=O)[C@H](C)N(C)C1=O [Myostatin_99_v300] ({CH2CO}-AAW[1Nal][NMeF]I[Sar][Phe(3-OCH2COOH)][Phe(4-COOH)]R[NMeF][X1][NMeA][NMeF][dC]-{Piperazinyl(4-CH2COOH)}; thioether N-15)
93%	99%	0%	0%	CCCCCCC[C@@H]1NC(=O)[C@H](Cc2ccccc2)N(C)C(=O)[C@H](CCCNC(=N)N)NC(=O)[C@H](Cc2ccc(C(=O)O)cc2)NC(=O)[C@H](Cc2cccc(OCC(=O)O)c2)NC(=O)CN(C)C(=O)[C@H]([C@@H](C)CC)NC(=O)[C@H](Cc2ccccc2)N(C)C(=O)[C@H](Cc2cccc(-c3ccccc3)c2)NC(=O)[C@H](Cc2c[nH]c3ccccc23)NC(=O)[C@H](C)NC(=O)[C@H](C)NC(=O)CSC[C@H](C(=O)N2CCN(CC(=O)O)CC2)NC(=O)[C@H](Cc2ccccc2)N(C)C(=O)[C@H](C)N(C)C1=O [Myostatin_99_v301] ({CH2CO}-AAW[Phe(3-Ph)][NMeF]I[Sar][Phe(3-OCH2COOH)][Phe(4-COOH)]R[NMeF][X1][NMeA][NMeF][dC]-{Piperazinyl(4-CH2COOH)}; thioether N-15)
